Assay results from patent US9452997B2, “Piperidine and piperazine derivatives as autotaxin inhibitors” (Merck Patent GmbH, priority 2009, dated 2016).
pIC50: −log10 of the molar value.

molecular target: T1, Recombinant autotaxin (Homo sapiens, UniProt Q13822); experiment: Autotaxin assay (Amplex Red, LPC substrate); format: biochemical; details: % of control at 1E−05 (compound concentration); uninhibited control = 100%
T1 construct: made in house; host or cells: Hi5 insect cells (baculovirus)
Method: Autotaxin activity is measured indirectly by means of Amplex Red Reagent. In this course, Amplex Red is measured as fluorogenic indicator for generated H2O2. Autotaxin converts substrate lysophosphatidylcholine (LPC) to phosphocholine and lysophosphatidylic acid (LPA). After the conversion phosphocholine is reacted with alkaline phosphatase to obtain inorganic phosphate and choline. During the next step choline is oxidized with choline oxidase to yield betaine, whereby H2O2 is generated. H2O2 reacts with Amplex Red Reagent in the presence of peroxidase (Horseradish peroxidase) in an 1:1 stochiometry and yields highly fluorescent resorufin. The generated fluorescence is measured in a reaction-dependent kinetic mode in order to enable subtraction of fluorescence signals of possible other fluorescent compounds that are not part of the reaction from total measured fluorescence.
1.5 μl of a standard solution or of the compounds of the invention are dissolved in 20 mM Hepes pH 7.2 with maximally 7.7% DMSO in individual concentrations. The resulting solution is pre-incubated together with 10 μl (16 ng) of highly purified recombinant autotaxin in a black 384-hole microtiter plate for 30 min at 22° C.
Thereafter, the reaction is started through the addition of 5 μL-a-lysophosphatidyl-choline (LPC), whereby the final concentration of LPC is 75 μM. The mixture is incubated for 90 min. at 37° C. After the incubation Amplex Red Reagent, peroxidase (Horseradish peroxidase) and choline oxidase are added. The fluorescence is immediately measured at a wavelength of 612 nm with an excitation wavelength of 485 nm in a “Tecan Ultra multimode” fluorescence reader. The activity of autotaxin is indirectly calculated via the amount of detected generated H2O2.
For IC50 analysis, ten serial 1:3 dilutions starting at 30 μM for each compound were run in duplicates.
IC50 values were calculated on normalized data. For normalization, control wells were added to each assay plate and the signal of uninhibited control wells was set to 100%, whereas the signal inhibited by 500 μM C14 LPA, (Avanti Polar Lipids, Cat#857120P) was set to 0%. Curves were fitted and IC50 values calculated by the following model using proprietory analysis software: Y=Bottom+(100−Bottom)/(1+10^((Log IC50−X)*HillSlope)) Where X is the logarithm of concentration. Y is the response; Y starts at Bottom and goes to Top with a sigmoid shape. Material
Microtiter plate: PS-Microplate, 384-hole, small volume, black Corning, Cat#3677
Protein: Recombinant autotaxin (baculoviral Hi5 expression)
Substrate: L-a-lysophosphatidyl choline (chicken egg); Avanti Polar Lipids #830071P
Standard: C14 LPA, Avanti Polar Lipids, Cat#857120P
Detection Reagent: Amplex Red Reagent; Invitrogen #A12222; dissolved in 1.923 ml of DMSO peroxidase Type VI-A (horseradish), Sigma #P6782; dissolved in 7.45 ml of test buffer, Choline Oxidase; Sigma #C5896; dissolved in 2.47 ml test buffer
Detection Reagent Mix: 1:100 dilution of Amplex Red Regent in test buffer
Test buffer: 200 mM Tris-HCl, Merck, Cat #1.08219, pH 7.9; 0.1% BSA, lipid free, Roche Cat#775835

SMILES	% CTRL (1E−05) [%]
O=C(Cc1ccc(C(F)(F)F)c(F)c1)N1CCN(C2CCN(C(=O)c3ccc4[nH]nnc4c3)CC2)CC1 [Compound 102, 1-{4-[1-(1H-Benzotriazole-5-carbonyl)-piperidin-4-yl]-piperazin-1-yl}-2-(3-fluoro-4-trifluoromethyl-phenyl)-ethanone]	24

same assay, conditions: recombinant autotaxin, LPC substrate, Amplex Red detection; values given as upper bounds

SMILES	pIC50
O=C(OCc1ccc(Br)cc1F)N1CCN(C2CCN(C(=O)c3ccc4[nH]nnc4c3)CC2)CC1 [Compound 156, 4-[1-(1H-Benzotriazole-5-carbonyl)-piperidin-4-yl]-piperazine-1-carboxylic acid 4-bromo-2-fluoro-benzyl ester]	> 5.00
O=C(c1ccc2[nH]nnc2c1)N1CCC(N2CCN(C(=O)c3ccccc3-c3cccc(C(F)(F)F)c3)CC2)CC1 [Compound 125, (1H-Benzotriazol-5-yl)-{4-[4-(3′-trifluoromethyl-biphenyl-2-carbonyl)-piperazin-1-yl]-piperidin-1-yl}-methanone]	> 5.00
O=C(CCc1ccc(Cl)cc1F)N1CCN(C2CCN(C(=O)c3ccc4[nH]nnc4c3)CC2)CC1 [Compound 67, 1-{4-[1-(1H-Benzotriazole-5-carbonyl)-piperidin-4-yl]-piperazin-1-yl}-3-(4-chloro-2-fluoro-phenyl)-propan-1-one]	> 5.00
Cc1ccc(-c2cccc(C(=O)N3CCC(C4CCN(C(=O)c5ccc6[nH]nnc6c5)CC4)CC3)c2)cc1 [Compound 13, [1′-(1H-Benzotriazole-5-carbonyl)-[4,4′]bipiperidinyl-1-yl]-(4′-methyl-biphenyl-3-yl)-methanone]	> 5.00
O=C(OCc1cc(Cl)cc(C(F)(F)F)c1)N1CCN(C2CCN(S(=O)(=O)c3ccc4[nH]c(=O)oc4c3)CC2)CC1 [Compound 183, 4-[1-(2-Oxo-2,3-dihydro-benzooxazole-6-sulfonyl)-piperidin-4-yl]-piperazine-1-carboxylic acid 3-chloro-5-trifluoromethyl-benzyl ester]	> 5.00
O=C(OCc1ccc(C(F)(F)F)cc1)N1CCN(CC2CCN(C(=O)c3ccc4[nH]nnc4c3)CC2)CC1 [Compound 109, 4-[1-(1H-Benzotriazole-5-carbonyl)-piperidin-4-ylmethyl]-piperazine-1-carboxylic acid 4-trifluoromethyl-benzyl ester]	> 5.00
Cc1ccc(COC(=O)N2CCN(C3CCN(C(=O)c4ccc5[nH]nnc5c4)CC3)CC2)cc1C(F)(F)F [Compound 119, 4-[1-(1H-Benzotriazole-5-carbonyl)-piperidin-4-yl]-piperazine-1-carboxylic acid 4-methyl-3-trifluoromethyl-benzyl ester]	> 5.00
O=C(OCc1cccc(Cl)c1)N1CCN(C2CCN(C(=O)c3ccc4[nH]nnc4c3)CC2)CC1 [Compound 41, 4-[1-(1H-Benzotriazole-5-carbonyl)-piperidin-4-yl]-piperazine-1-carboxylic acid 3-chloro-benzyl ester]	> 6.00
O=C(OCc1ccc(Cl)c(Cl)c1)N1CCC(N2CCN(C(=O)c3ccc4[nH]nnc4c3)CC2)CC1 [Compound 85, 4-[4-(1H-Benzotriazole-5-carbonyl)-piperazin-1-yl]-piperidine-1-carboxylic acid 3,4-dichloro-benzyl ester]	> 6.00
CCc1ccc(COC(=O)N2CCN(C3CCN(C(=O)c4ccc5[nH]nnc5c4)CC3)CC2)cc1 [Compound 151, 4-[1-(1H-Benzotriazole-5-carbonyl)-piperidin-4-yl]-piperazine-1-carboxylic acid 4-ethyl-benzyl ester]	> 6.00
O=C(OCc1cc(Cl)cc(C(F)(F)F)c1)N1CCN(C2CCN(C(=O)c3ccc4[nH]nnc4c3)CC2)CC1 [Compound 95, 4-[1-(1H-Benzotriazole-5-carbonyl)-piperidin-4-yl]-piperazine-1-carboxylic acid 3-chloro-5-trifluoromethyl-benzyl ester]	> 6.00
O=C(Nc1ccc2[nH]nnc2c1)c1cncc(N2CCN(C(=O)OCc3ccc(Cl)cc3)CC2)c1 [Compound 6, 4-[5-(1H-Benzotriazol-5-ylcarbamoyl)-pyridin-3-yl]-piperazine-1-carboxylic acid 4-chloro-benzyl ester]	> 4.52
O=C(OCc1ccc(C(F)(F)F)c(F)c1F)N1CCC(N2CCN(C(=O)c3ccc4[nH]nnc4c3)CC2)CC1 [Compound 113, 4-[1-(1H-Benzotriazole-5-carbonyl)-piperidin-4-yl]-piperazine-1-carboxylic acid 2,3-dilfuoro-4-trifluoromethyl-benzyl ester]	> 6.00
Nc1n[nH]c2ccc(C(=O)N3CCN(C4CCN(C(=O)OCc5ccc(C(F)(F)F)cc5)CC4)CC3)cc12 [Compound 112, 4-[4-(3-Amino-1H-indazole-5-carbonyl)-piperazin-1-yl]-piperidine-1-carboxylic acid 4-trifluoromethyl-benzyl ester]	> 5.00
O=C(OCc1ccc(OC(F)(F)F)c(Cl)c1)N1CCN(C2CCN(C(=O)c3ccc4[nH]nnc4c3)CC2)CC1 [Compound 101, 4-[1-(1H-Benzotriazole-5-carbonyl)-piperidin-4-yl]-piperazine-1-carboxylic acid 3-chloro-4-trifluoromethoxy-benzyl ester]	> 6.00
O=C(OCc1ccc(F)c(C(F)(F)F)c1)N1CCN(C2CCN(C(=O)c3ccc4[nH]nnc4c3)CC2)CC1 [Compound 100, 4-[1-(1H-Benzotriazole-5-carbonyl)-piperidin-4-yl]-piperazine-1-carboxylic acid 4-fluoro-3-trifluoromethyl-benzyl ester]	> 6.00
O=C(OCc1cc(Cl)cc(Br)c1)N1CCN(C2CCN(C(=O)c3ccc4[nH]nnc4c3)CC2)CC1 [Compound 146, 4-[1-(1H-Benzotriazole-5-carbonyl)-piperidin-4-yl]-piperazine-1-carboxylic acid 3-bromo-5-chloro-benzyl ester]	> 6.00
COc1cc(COC(=O)N2CCN(C3CCN(C(=O)c4ccc5[nH]nnc5c4)CC3)CC2)cc(OC)c1OC [Compound 121, 4-[1-(1H-Benzotriazole-5-carbonyl)-piperidin-4-yl]-piperazine-1-carboxylic acid 3,4,5-trimethoxy-benzyl ester]	> 4.52
Cc1cc(CCC(=O)N2CCN(C3CCN(C(=O)c4ccc5[nH]nnc5c4)CC3)CC2)cc(C)c1F [Compound 106, 1-{4-[1-(1H-Benzotriazole-5-carbonyl)-piperidin-4-yl]-piperazin-1-yl}-3-(4-fluoro-3,5-dimethyl-phenyl)-propan-1-one]	> 5.00
O=C(OCc1ccc(SC(F)F)cc1)N1CCN(C2CCN(C(=O)c3ccc4[nH]nnc4c3)CC2)CC1 [Compound 168, 4-[1-(1H-Benzotriazole-5-carbonyl)-piperidin-4-yl]-piperazine-1-carboxylic acid 4-difluoromethylsulfanyl-benzyl ester]	> 6.00
O=C(OCc1ccc(SC(F)(F)F)cc1)N1CCC(N2CCN(C(=O)c3ccc4[nH]nnc4c3)CC2)CC1 [Compound 86, 4-[4-(1H-Benzotriazole-5-carbonyl)-piperazin-1-yl]-piperidine-1-carboxylic acid 4-trifluoromethylsulfanyl-benzyl ester]	> 6.00
Cc1nc(-c2ccc(Cl)cc2)sc1COC(=O)N1CCN(C2CCN(C(=O)c3ccc4[nH]nnc4c3)CC2)CC1 [Compound 174, 4-[1-(1H-Benzotriazole-5-carbonyl)-piperidin-4-yl]-piperazine-1-carboxylic acid 2-(4-chloro-phenyl)-4-methyl-thiazol-5-ylmethyl ester]	> 5.00
O=C(OCc1cc(-c2ccsc2)cs1)N1CCN(C2CCN(C(=O)c3ccc4[nH]nnc4c3)CC2)CC1 [Compound 135, 4-[1-(1H-Benzotriazole-5-carbonyl)-piperidin-4-yl]-piperazine-1-carboxylic acid [3,3′]bithiophenyl-5-ylmethyl ester]	> 6.00
O=C(OCc1ccc(OC(F)(F)F)cc1)N1CCN(C2CCN(C(=O)c3ccc4[nH]nnc4c3)CC2)CC1 [Compound 47, 4-[1-(1H-Benzotriazole-5-carbonyl)-piperidin-4-yl]-piperazine-1-carboxylic acid 4-trifluoromethoxy-benzyl ester]	> 6.00
